ChEMBL document CHEMBL1201861, “Genomics of Drug Sensitity in Cancer screening data, Wellcome Trust Sanger Institute”

Legend:
Assay in all cases: cells
[1] = tested on: HT-1080; assay type: functional, cell-based, Homo sapiens; settings: Homo sapiens, HT-1080
Description: SANGER: Inhibition of human HT-1080 cell growth in a cell viability assay.

[2] = tested on: NCI-H2228; assay type: functional, cell-based, Homo sapiens; settings: Homo sapiens, NCI-H2228;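 further: growth inhibition of human NCI-H2228 cells, read out by a cell viability assay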
Description: SANGER: Inhibition of human NCI-H2228 cell growth in a cell viability assay.

[3] = tested on: Ca-Ski; assay type: functional, cell-based, Homo sapiens; settings: Homo sapiens, Ca-Ski;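 further: cell viability assay measuring inhibition of Ca-Ski cell growth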
Description: SANGER: Inhibition of human Ca-Ski cell growth in a cell viability assay.

[4] = tested on: BCPAP; assay type: functional, cell-based, Homo sapiens; settings: Homo sapiens, BCPAP;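 further: growth inhibition of BCPAP cells, read out in a cell viability assay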
Description: SANGER: Inhibition of human BCPAP cell growth in a cell viability assay.

[5] = tested on: A2058; assay type: functional, cell-based, Homo sapiens; settings: Homo sapiens, A2058;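 further: reduction of A2058 cell growth, read out with a viability assay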
Description: SANGER: Inhibition of human A2058 cell growth in a cell viability assay.

[6] = tested on: RT-112; assay type: functional, cell-based, Homo sapiens; settings: Homo sapiens, RT-112
Description: SANGER: Inhibition of human RT-112 cell growth in a cell viability assay.

[7] = tested on: COR-L23; assay type: functional, cell-based, Homo sapiens; settings: Homo sapiens, COR-L23;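 further: cell viability assay measuring how strongly compounds suppress growth of COR-L23 cells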
Description: SANGER: Inhibition of human COR-L23 cell growth in a cell viability assay.

[8] = tested on: J82; assay type: functional, cell-based, Homo sapiens; settings: Homo sapiens, J82;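 further: growth inhibition of J82 cells, read out with a cell viability assay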
Description: SANGER: Inhibition of human J82 cell growth in a cell viability assay.

[9] = tested on: HSC-2; assay type: functional, cell-based, Homo sapiens; settings: Homo sapiens, HSC-2;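 further: growth inhibition of human HSC-2 cells, read out by a cell viability assay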
Description: SANGER: Inhibition of human HSC-2 cell growth in a cell viability assay.

[10] = tested on: MCF7; assay type: functional, cell-based, Homo sapiens; settings: Homo sapiens, MCF7;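 further: growth inhibition of human MCF7 cells, read out with a cell viability assay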
Description: SANGER: Inhibition of human MCF7 cell growth in a cell viability assay.

[11] = tested on: HCC1569; assay type: functional, cell-based, Homo sapiens; settings: Homo sapiens, HCC1569;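 further: growth inhibition of human HCC1569 cells, read out with a cell viability assay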
Description: SANGER: Inhibition of human HCC1569 cell growth in a cell viability assay.

[12] = tested on: TCC-SUP; assay type: functional, cell-based, Homo sapiens; settings: Homo sapiens, TCC-SUP;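 further: growth inhibition of TCC-SUP cells, read out with a cell viability assay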
Description: SANGER: Inhibition of human TCCSUP cell growth in a cell viability assay.

[13] = tested on: SK-OV-3; assay type: functional, cell-based, Homo sapiens; settings: Homo sapiens, SK-OV-3;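 further: growth inhibition of SK-OV-3 human cells, read out with a cell viability assay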
Description: SANGER: Inhibition of human SK-OV-3 cell growth in a cell viability assay.

[14] = tested on: MDA-MB-361; assay type: functional, cell-based, Homo sapiens; settings: Homo sapiens, MDA-MB-361
[15] = tested on: SK-MEL3; assay type: functional, cell-based, Homo sapiens, SK-MEL-3; settings: Homo sapiens, SK-MEL3;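 further: growth inhibition of human SK-MEL-3 cells, read out with a cell viability assay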
Description: SANGER: Inhibition of human SK-MEL-3 cell growth in a cell viability assay.

[16] = tested on: C32; assay type: functional, cell-based, Homo sapiens; settings: Homo sapiens, C32;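 further: cell viability assay, with IC50 reflecting inhibition of C32 cell growth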
Description: SANGER: Inhibition of human C32 cell growth in a cell viability assay.

[17] = tested on: MKN-45; assay type: functional, cell-based, Homo sapiens; settings: Homo sapiens, MKN-45;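 further: growth inhibition of human MKN-45 cells, measured with a cell viability assay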
Description: SANGER: Inhibition of human MKN45 cell growth in a cell viability assay.

[18] = tested on: MEL-HO; assay type: functional, cell-based, Homo sapiens; settings: Homo sapiens, MEL-HO
Description: SANGER: Inhibition of human MEL-HO cell growth in a cell viability assay.

[19] = tested on: KYSE-180; assay type: functional, cell-based, Homo sapiens; settings: Homo sapiens, KYSE-180;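 further: growth inhibition of KYSE-180 cells, read out with a cell viability assay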
Description: SANGER: Inhibition of human KYSE-180 cell growth in a cell viability assay.

[20] = tested on: SK-MEL-24; assay type: functional, cell-based, Homo sapiens; settings: Homo sapiens, SK-MEL-24;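 further: growth inhibition read out by a cell viability assay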
Description: SANGER: Inhibition of human SK-MEL-24 cell growth in a cell viability assay.

[21] = tested on: NCI-H630; assay type: functional, cell-based, Homo sapiens; settings: Homo sapiens, NCI-H630;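 further: growth inhibition of NCI-H630 cells, read out with a cell viability assay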
Description: SANGER: Inhibition of human NCI-H630 cell growth in a cell viability assay.

[22] = tested on: HMV-2 cell line; assay type: functional, cell-based, Homo sapiens; settings: Homo sapiens, HMV-2;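 further: growth inhibition of HMV-II cells, read out with a cell viability assay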
Description: SANGER: Inhibition of human HMV-II cell growth in a cell viability assay.

[23] = tested on: UACC-893; assay type: functional, cell-based, Homo sapiens; settings: Homo sapiens, UACC-893
Description: SANGER: Inhibition of human UACC-893 cell growth in a cell viability assay.

[24] = tested on: CAL-62; assay type: functional, cell-based, Homo sapiens; settings: Homo sapiens, CAL-62;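 further: growth inhibition of CAL-62 cells, read out with a cell viability assay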
Description: SANGER: Inhibition of human CAL-62 cell growth in a cell viability assay.

[25] = tested on: DOK; assay type: functional, cell-based, Homo sapiens; settings: Homo sapiens, DOK;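 further: cell viability assay read-out, values reflect inhibition of cell growth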
Description: SANGER: Inhibition of human DOK cell growth in a cell viability assay.

[26] = tested on: 8505C; assay type: functional, cell-based, Homo sapiens; settings: Homo sapiens, 8505C
Description: SANGER: Inhibition of human 8505C cell growth in a cell viability assay.

[27] = tested on: RERF-LC-MS; assay type: functional, cell-based, Homo sapiens; settings: Homo sapiens, RERF-LC-MS;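 further: growth inhibition of human RERF-LC-MS cells, read out by a cell viability assay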
Description: SANGER: Inhibition of human RERF-LC-MS cell growth in a cell viability assay.

[28] = tested on: Capan-2; assay type: functional, cell-based, Homo sapiens; settings: Homo sapiens, Capan-2;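 further: Capan-2 cell growth inhibition, read out with a viability assay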
Description: SANGER: Inhibition of human Capan-2 cell growth in a cell viability assay.

[29] = tested on: H4; assay type: functional, cell-based, Homo sapiens; settings: Homo sapiens, H4
Description: SANGER: Inhibition of human H4 cell growth in a cell viability assay.

[30] = tested on: SW1417; assay type: functional, cell-based, Homo sapiens; settings: Homo sapiens, SW1417;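 further: growth inhibition of human SW1417 cells, read out with a cell viability assay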
Description: SANGER: Inhibition of human SW1417 cell growth in a cell viability assay.

[31] = tested on: NCI-H1703; assay type: functional, cell-based, Homo sapiens; settings: Homo sapiens, NCI-H1703;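 further: growth inhibition of NCI-H1703 cells, read out via a cell viability assay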
Description: SANGER: Inhibition of human NCI-H1703 cell growth in a cell viability assay.

[32] = tested on: SNU-387; assay type: functional, cell-based, Homo sapiens; settings: Homo sapiens, SNU-387
Description: SANGER: Inhibition of human SNU-387 cell growth in a cell viability assay.

[33] = tested on: ACHN; assay type: functional, cell-based, Homo sapiens; settings: Homo sapiens, ACHN;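 further: cell viability read-out used to gauge how strongly growth of human ACHN cells is suppressed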
Description: SANGER: Inhibition of human ACHN cell growth in a cell viability assay.

[34] = tested on: HuP-T4; assay type: functional, cell-based, Homo sapiens; settings: Homo sapiens, HuP-T4;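 further: cell viability assay measuring how much HuP-T4 cell growth is inhibited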
Description: SANGER: Inhibition of human HuP-T4 cell growth in a cell viability assay.

[35] = tested on: SK-HEP1; assay type: functional, cell-based, Homo sapiens, SK-HEP-1; settings: Homo sapiens, SK-HEP1;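 further: cell viability readout used to quantify reduction in proliferation of human SK-HEP-1 cells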
Description: SANGER: Inhibition of human SK-HEP-1 cell growth in a cell viability assay.

[36] = tested on: VMRC-RCZ; assay type: functional, cell-based, Homo sapiens; settings: Homo sapiens, VMRC-RCZ;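 further: growth inhibition measured with a cell viability assay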
Description: SANGER: Inhibition of human VMRC-RCZ cell growth in a cell viability assay.

[37] = tested on: NCI-H1563; assay type: functional, cell-based, Homo sapiens; settings: Homo sapiens, NCI-H1563;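 further: growth inhibition of human NCI-H1563 cells, read out with a cell viability assay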
Description: SANGER: Inhibition of human NCI-H1563 cell growth in a cell viability assay.

[38] = tested on: NCI-H2029; assay type: functional, cell-based, Homo sapiens; settings: Homo sapiens, NCI-H2029;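 further: Read-out is a viability assay on the cultured cells, and IC50 is the concentration that suppresses cell growth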
Description: SANGER: Inhibition of human NCI-H2029 cell growth in a cell viability assay.

[39] = tested on: HuO-3N1; assay type: functional, cell-based, Homo sapiens; settings: Homo sapiens, HuO-3N1;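 further: cell viability readout used to measure how strongly compounds suppress proliferation of human HuO-3N1 cells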
Description: SANGER: Inhibition of human HuO-3N1 cell growth in a cell viability assay.

[40] = tested on: NUGC-3; assay type: functional, cell-based, Homo sapiens; settings: Homo sapiens, NUGC-3;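 further: growth inhibition of human NUGC-3 cells, read out with a cell viability assay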
Description: SANGER: Inhibition of human NUGC-3 cell growth in a cell viability assay.

Structure (SMILES): Nc1cccc2c1CN(C1CCC(=O)NC1=O)C2=O (stereo not given) [LENALIDOMIDE]
- IC50 [1]: > 5 µM
- IC50 [2]: > 5 µM
- IC50 [3]: > 5 µM
- IC50 [4]: > 5 µM
- IC50 [5]: > 5 µM
- IC50 [6]: > 5 µM
- IC50 [7]: > 5 µM
- IC50 [8]: > 5 µM
- IC50 [9]: > 5 µM
- IC50 [10]: > 5 µM
- IC50 [11]: > 5 µM
- IC50 [12]: > 5 µM
- IC50 [13]: > 5 µM
- IC50 [14]: > 5 µM
- IC50 [15]: > 5 µM
- IC50 [16]: > 5 µM
- IC50 [17]: > 5 µM
- IC50 [18]: > 5 µM
- IC50 [19]: > 5 µM
- IC50 [20]: > 5 µM
- IC50 [21]: > 5 µM
- IC50 [22]: > 5 µM
- IC50 [23]: > 5 µM
- IC50 [24]: > 5 µM
- IC50 [25]: > 5 µM
- IC50 [26]: > 5 µM
- IC50 [27]: > 5 µM
- IC50 [28]: > 5 µM
- IC50 [29]: > 5 µM
- IC50 [30]: > 5 µM
- IC50 [31]: > 5 µM
- IC50 [32]: > 5 µM
- IC50 [33]: > 5 µM
- IC50 [34]: > 5 µM
- IC50 [35]: > 5 µM
- IC50 [36]: > 5 µM
- IC50 [37]: > 5 µM
- IC50 [38]: > 5 µM
- IC50 [39]: > 5 µM
- IC50 [40]: > 5 µM

Structure (SMILES): CC(C)CCN1c2nc(Nc3cc(F)c(O)c(F)c3)ncc2N(C)C(=O)C1C (stereo not given)
- IC50 [1]: > 5 µM
- IC50 [2]: > 5 µM
- IC50 [3]: 3.48 µM
- IC50 [4]: > 5 µM
- IC50 [5]: > 5 µM
- IC50 [6]: > 5 µM
- IC50 [7]: 4.74 µM
- IC50 [8]: > 5 µM
- IC50 [9]: > 5 µM
- IC50 [10]: > 5 µM
- IC50 [11]: > 5 µM
- IC50 [12]: > 5 µM
- IC50 [13]: > 5 µM
- IC50 [14]: > 5 µM
- IC50 [15]: > 5 µM
- IC50 [16]: 3.97 µM
- IC50 [17]: > 5 µM
- IC50 [18]: > 5 µM
- IC50 [19]: > 5 µM
- IC50 [20]: > 5 µM
- IC50 [21]: > 5 µM
- IC50 [22]: 2.17 µM
- IC50 [23]: > 5 µM
- IC50 [24]: 0.882 µM
- IC50 [25]: 3.77 µM
- IC50 [26]: 4.46 µM
- IC50 [27]: > 5 µM
- IC50 [28]: > 5 µM
- IC50 [29]: 2.48 µM
- IC50 [30]: > 5 µM
- IC50 [31]: > 5 µM
- IC50 [32]: > 5 µM
- IC50 [33]: > 5 µM
- IC50 [34]: > 5 µM
- IC50 [35]: > 5 µM
- IC50 [36]: > 5 µM
- IC50 [37]: > 5 µM
- IC50 [38]: 1.97 µM
- IC50 [39]: > 5 µM
- IC50 [40]: > 5 µM
